Data taken from patent US20040267283A1, “Method, device and kit for body decoration” (priority 2003, published 2004).

What was measured:
human = conditions: reason for choosing the additional dyes; cited from earlier work
[1] = reason for choosing the additional dyes; cited from earlier work
swine ear skin = tested on: swine ear skin
Description: An in-vitro skin penetration study was conducted to determine which combination of parameters results in the maximum amount of active substance, e.g., color formulation, being delivered into the skin, i.e., the dermis and epidermis, but not through the skin, i.e., beneath the epidermis.
The in-vitro skin penetration study generally included the following test procedure. Decoration ink, as in embodiments of the present invention, was applied on a piece of swine ear skin. The swine skin was excised to full thickness (epidermis and dermis) to an approximate depth of 500-1000 μm. […]
At the end of the exposure period, the entire receptor compartment was drained and the solution reserved for subsequent analysis of the dye(s) and/or pigment(s). […] The depth of penetration was measured by noting the number of tape strippings required to remove the ink. […] The ink was determined quantitatively using customary analytical procedures (e.g., HPLC, UV-Vis spectrum, GC, radiolabeled detection, etc.), as applicable. […]
In these experiments, the enhancing effect of iontophoresis and/or electroosmosis on skin penetration of different dyes was assessed. […] The following properties were measured to determine the enhancing effect of iontophoretic induction on the dyes' skin penetration: uniformity of the dyeing by observation; and penetration depth by tape stripping. […]

[2] = Solution conductivity of the dyes (current at applied voltage); assay type: physicochemical
Description: (§1) In the first part of the in-vitro skin penetration study, the color application included the use of dyes D&C Green no. 6, FD&C Blue no. 1, FD&C Yellow no. 6, and FD&C Red no. 40. All chemicals used were analytical grade, obtained from standard supply houses (Sigma, VWR, etc.). The dyes were dissolve in ddw and the solution conductivity was measured using a dedicated apparatus. The target conductivity was defined as a minimum of 1 mAmp/cm^3 current at 3 volts. If such conductivity was not attained, the dye concentration and/or the voltage were increased. See Table 1 for the solubility and conductivity of the dyes.

mice = conditions: cited from earlier work; for Toxicity, LD50: IP in mice
Solubility of the dyes [3] = assay type: physicochemical
Description: as §1, with “increased.” for “increased. See Table 1 for the solubility and conductivity of the dyes.”

rabbit = conditions: SC in rabbit; cited from earlier work
Solubility of the dyes [4] = assay type: physicochemical; remark: listed apart in the source
swine skin = assay: In-vitro skin penetration, hydrogel patches on stretched skin (vertical diffusion cells without cell tops), tape stripping; assay type: in vitro ADME; conditions: for Depth of penetration (Tape strips = TS): skin cleaned with 10% lactic acid
Description: In the second part of the in-vitro skin penetration study, the color application included the use of a hydrogel patch and dye FD&C Red no. 40 and additional dyes, Acid Blue 1 (Blue V) and Indocyanine green, on the swine skin. All chemicals used were analytical grade, obtained from standard supply houses (Sigma, VWR, etc.). […] In these experiments, the depth of penetration was tested for the additional dyes using iontophoresis and/or electroosmosis. Additionally, extensive work was done in order to establish a shaped tattoo that is sharp and has strong color imprint. The experiments were also directed to the effect of the application duration on the tattoo life span. The following properties of the tattoo were measured to determine the effects of iontophoresis on the dyes and pigments' skin penetration: uniformity of the dyeing by observation; penetration depth by tape stripping; and water durability by washing the skin with tap water.
The experiments performed in this second part of the study are described below. Experiments 2.1-2.8 and 2.10-2.14 were conducted on in-vitro swine skin. Experiments 2.9, 2.15, and 2.16 were conducted on in-vivo human skin. FIGS. 6-14 illustrate the body decoration results from the experiments.
This experiment was conducted to determine the dye penetration depth of stretched skin, as would be the case on the subject's body area. In the vertical diffusion cells without the cell tops, the skin was stretched with the cell clamps. To increase the water content of the hydrogel in the patches, the hydrogel was soaked with ddw for 2 minutes. Excess water was then absorbed. Tissue paper heart-shaped pieces were soaked in Blue V solution (100 mg/ml in ddw). The blue heart shapes were placed on the patches' hydrogel and removed a few seconds later, leaving a blue heart-shaped imprint on the hydrogel. The hydrogel patches with the blue heart-shaped imprint were placed on the skin after the skin was cleaned with 10% lactic acid. In the active experiments, the patch wires were connected to a power supply tuned to 0.5 mAmp (0.5 mAmp/cm^2). […] The dye penetration depth was determined by tape stripping.
Blue heart-shaped tattoos were created, as described before in Experiment 6. This experiment was conducted to sharpen the tattoo by soaking the hydrogel in ddw for only few seconds.
In this experiment, the patches' hydrogel content was changed. Instead of KCl, the hydrogel contained NaCl. 100 mg/ml Blue V in ddw with 10% ethanol was used to create the blue heart-shaped imprint. The assay lasted 20 minutes and was done in duplicates. […] The penetration depth was lower with NaCl than KCl in Experiment 2.6.

human skin = assay: In-vivo human skin tattoo with imprinted hydrogel patches; conditions: Exp 2.16, human study, star shape, 50 mg/ml in ddw, 0.04 mAmp, 60 min, skin cleaned with 10% lactic acid

SMILES: CC1(C)C(/C=C/C=C/C=C/C=C2\N(CCCCS(=O)(=O)O)c3ccc4ccccc4c3C2(C)C)=[N+](CCCCS(=O)(=O)[O-])c2ccc3ccccc3c21 [Green, Indocyanine green, reference compound]
- Toxicity (approved for human injection) (human): nontoxic
- Solubility in water [1]: soluble in water
- Effect of iontophoresis on skin penetration depth (swine ear skin): not affected

SMILES: O=S(=O)([O-])c1ccc(N=Nc2c(O)ccc3cc(S(=O)(=O)[O-])ccc23)cc1.[Na+].[Na+] [Yellow no. 6, FD&C Yellow no. 6]
- Current ([2]; 20 mg/ml in water, 3 V): 1.3 mA
- Toxicity, LD50 (mice): LD50 = 4.6 gm/kg

SMILES: COc1cc(S(=O)(=O)[O-])c(C)cc1N=Nc1c(O)ccc2cc(S(=O)(=O)[O-])ccc12.[Na+].[Na+] [Red no. 40, FD&C Red no. 40]
- Current ([2]; 10 mg/ml in water, 3 V): ˜0.3 mA
- Current ([2]; 10 mg/ml in water, 4.15 V): 1 mA
- Current ([2]; 20 mg/ml in water, 3 V): 1.1 mA
- Solubility (Solubility of the dyes [3]; 10 mg/ml in water): Soluble
- Solubility (Solubility of the dyes [3]; 20 mg/ml in water): Soluble
- Toxicity, LD50 (rabbit): LD50 > 10 gm/kg,

SMILES: CCN(Cc1cccc(S(=O)(=O)[O-])c1)c1ccc(C(=C2C=CC(=[N+](CC)Cc3cccc(S(=O)(=O)[O-])c3)C=C2)c2ccccc2S(=O)(=O)[O-])cc1.[Na+].[Na+] [Blue no. 1, FD&C Blue no. 1]
- Current ([2]; 2 mg/ml in water, 3 V): None
- Current ([2]; 6 mg/ml in water, 3 V): ˜0.3 mA
- Current ([2]; 6 mg/ml in water, 3.92 V): 1 mA
- Current ([2]; 10 mg/ml in water, 3 V): ˜0.4 mA
- Current ([2]; 10 mg/ml in water, 3.69 V): 1 mA
- Current ([2]; 20 mg/ml in water, 3 V): ˜0.4 mA
- Current ([2]; 20 mg/ml in water, 3.69 V): 1 mA
- Solubility (Solubility of the dyes [3]; 2 mg/ml in water): Soluble
- Solubility (Solubility of the dyes [3]; 6 mg/ml in water): Soluble
- Solubility (Solubility of the dyes [3]; 10 mg/ml in water): Soluble
- Solubility (Solubility of the dyes [3]; 20 mg/ml in water): Soluble
- Toxicity (mice; SC in mice): 5.5 gm/kg

SMILES: Cc1ccc(Nc2ccc(Nc3ccc(C)cc3)c3c2C(=O)c2ccccc2C3=O)cc1 [Green no. 6, D&C Green no. 6]
- Solubility (Solubility of the dyes [4]; 2.5 mg/ml + 30% ethanol): Insoluble
- Solubility (Solubility of the dyes [4]; 10 mg/ml + 30% ethanol): Insoluble
- Solubility (Solubility of the dyes [3]; 10 mg/ml in water): Insoluble
- Toxicity, LD50 (mice): LD50 = 0.25 gm/kg

SMILES: CCN(CC)c1ccc(C(=C2C=CC(=[N+](CC)CC)C=C2)c2ccc(S(=O)(=O)[O-])cc2S(=O)(=O)[O-])cc1.[Na+] [Blue V, Acid Blue 1]
- Toxicity (approved for human injection) (human): nontoxic
- Solubility in water [1]: soluble in water
- Effect of iontophoresis on skin penetration depth (swine ear skin): increased
- Depth of penetration (Tape strips = TS) (swine skin; Exp 2.13, Active, Anode, hydrogel with NaCl, 100 mg/ml in ddw with 10% ethanol, current = 500 μA/cm^2, 20 min): Anode - TS# 3
- Depth of penetration (Tape strips = TS) (swine skin; Exp 2.13, Active, Cathode, hydrogel with NaCl, 100 mg/ml in ddw with 10% ethanol, current = 500 μA/cm^2, 20 min): Cathode - TS# >4
- Depth of penetration (Tape strips = TS) (swine skin; Exp 2.13, Passive, hydrogel with NaCl, 100 mg/ml in ddw with 10% ethanol, 20 min): TS# 3
- Penetration depth with NaCl hydrogel compared with KCl hydrogel (swine skin; Exp 2.13 compared with Exp 2.6): lower
- Depth of penetration (Tape strips = TS) (swine skin; Exp 2.6, Active, Anode, 100 mg/ml in ddw, stretched skin, current = 500 μA/cm^2, 30 min): Anode - TS# 5
- Depth of penetration (Tape strips = TS) (swine skin; Exp 2.6, Active, Cathode, 100 mg/ml in ddw, stretched skin, current = 500 μA/cm^2, 30 min): Cathode - TS# >6
- Depth of penetration (Tape strips = TS) (swine skin; Exp 2.6, Passive, 100 mg/ml in ddw, stretched skin, 30 min): TS# 4
- Depth of penetration (Tape strips = TS) (swine skin; Exp 2.8, Active, Anode, 100 mg/ml in ddw, hydrogel soaked in ddw for only few seconds, current = 500 μA/cm^2): Anode - TS# 4
- Depth of penetration (Tape strips = TS) (swine skin; Exp 2.8, Active, Cathode, 100 mg/ml in ddw, hydrogel soaked in ddw for only few seconds, current = 500 μA/cm^2): Cathode - TS# >7
- Depth of penetration (Tape strips = TS) (swine skin; Exp 2.8, Passive, 100 mg/ml in ddw, hydrogel soaked in ddw for only few seconds): TS# 4
- Time after which the dye completely faded (tattoo life span) (human skin; Active With polyester): after 10 days.
- Time after which the dye completely faded (tattoo life span) (human skin; Active Without polyester): after 7 days.
